Laboratory results published in US20140275224A1, “CYTOSINE DEAMINASE MODULATORS FOR ENHANCEMENT OF DNA TRANSFECTION” (Regents of the University of Minnesota, priority 2010, published 2014).

Tests used:
[1] = target: E. Coli uracil-DNA glycosylase (Escherichia coli, UniProt P12295); assay: control assay with UDG (U-containing oligos, without A3s); type: biochemical; settings: specificity control, FIG. 2C
From the text: All newly synthesized compounds can be tested in dose response experiments against recombinant A3A and A3G to identify the sub-library_compounds that have dual-inhibitory activity like the parental molecules.
These initial experiments can also identify the subset with improved IC50 values. Second, all confirmed inhibitors can be tested against the other five recombinant human A3 proteins (A3BCDEFH) to identify broader-spectrum inhibitors. Third, reactions can be performed with U-containing oligos and UDG (i.e., without A3s) to re-confirm that all new inhibitors have not become general enzyme inhibitors. These assays can be carried out in 96 or 384 well plate formats. HEK-293T cells were transfected with an A3A expression plasmid, and total cell extracts were used in DNA deaminase assays. Non-transfected or A3A-E72A catalytic mutant transfected cell extracts show no activity (28).

[2] = system: A3 DNA deaminase (A3A or A3G); assay: fluorescence-based DNA deamination assay, high-throughput screening; type: biochemical, human; settings: 10 μM library compound, inhibitors inhibit the reaction by 50% or more and reproduce in dose response
From the text: MN132, MN137, MN141, and MN152 are a few exemplary molecules identified from high-throughput screening. To screen for inhibitors of A3A or A3G DNA cytosine deaminase activity, a previously described fluorescence-based assay has been modified, optimized, and miniaturized (FIG. 2A) (30). C-to-U by A3A or A3G creates a substrate uracil that is excised by UDG, and the resulting abasic site is attacked by hydroxide to release 6-FAM fluorescence from the TAMRA quench. Recombinant A3A- or A3G-myc-His purified from a HEK-293-based cell line is incubated with uracil DNA glycosylase (UDG), 10 μM library compound (or a DMSO control), and a cytosine-containing, single-stranded DNA substrate attached to a 5′ 6-FAM fluorescent tag and a 3′ TAMRA quench molecule. During a 2 hr incubation period, the A3 protein deaminates 5′-C-to-U and UDG excises the uracil to leave an abasic site. DNA cleavage by NaOH produces a fluorescent signal by releasing the 6-FAM fluorophore from the TAMRA quench. This assay is highly sensitive and reproducible (A3G Z score=0.86 and A3A Z score=0.88 on the University of Minnesota ITDD HTS platform). […]
Protocols were developed for purification of A3-myc-His proteins from HEK-293 cells. […] High (80-90%) purity is achieved routinely, and all proteins show robust activity in our fluorescence-based C-to-U deaminase assay as shown in FIGS. 4C and 4D.

A3A = target: T1, A3A (Homo sapiens, UniProt P31941); assay: DNA deaminase assay in A3A-expressing HEK-293T cell extracts; type: biochemical; settings: A3A-transfected HEK-293T total cell extracts, compared with recombinant protein, FIG. 5
T1 construct: expressed in transfected cells; host or cells: HEK-293T
Experimental: Like the recombinant protein assay described above, assays with A3-containing cell extracts are done in 96 and 384 well formats and the read-out is relative fluorescence units.
The deaminase activity in the lysates was determined using a FRET-based assay essentially as described^59. […] FRET occurs between the fluorophores, decreasing FAM fluorescence. If cytidine deaminase activity is present in the lysates, the single cytidine is converted to uridine, which is then excised by uracil DNA glycosylase (NEB). Resulting abasic sites are cleaved by incubating reactions for 2 min at 95° C. Once cleaved, the FAM and TAMRA labels are physically separated, FRET diminishes, and FAM fluorescence increases. Fluorescence is measured on the Lightcycler 480 instrument (Roche).

primary human monocytes = primary human monocytes nucleofected with a GFP expression vector; type: cell-based; settings: 3 days post-transfection, flow cytometry, versus DMSO (not detectably transfected), FIG. 7B
From the text: Primary human monocytes were purified by negative selection and nucleofected with a GFP expression vector. Since these cells naturally express A3A, transfection with A3A expression plasmids was not necessary. The pool of transfected cells was split into wells containing media plus vehicle control or MN132. A variety of different cell lines (lymphoid, liver, breast, brain, epithelial, and colorectal origins) and distinct primary white blood cell types (T, B, monocyte, neutrophil, etc.) can be used in these experiments to test the central hypothesis that the endogenous A3s constitute a general barrier to foreign DNA and genetic engineering.

T1 sequence (P31941 whole entry): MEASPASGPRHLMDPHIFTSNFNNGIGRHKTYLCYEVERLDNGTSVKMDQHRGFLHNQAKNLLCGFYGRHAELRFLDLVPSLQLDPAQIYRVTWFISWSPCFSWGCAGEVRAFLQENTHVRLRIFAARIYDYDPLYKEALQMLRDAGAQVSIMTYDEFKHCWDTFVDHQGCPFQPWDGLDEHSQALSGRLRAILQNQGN
Sequence of E. Coli uracil-DNA glycosylase (P12295 whole entry): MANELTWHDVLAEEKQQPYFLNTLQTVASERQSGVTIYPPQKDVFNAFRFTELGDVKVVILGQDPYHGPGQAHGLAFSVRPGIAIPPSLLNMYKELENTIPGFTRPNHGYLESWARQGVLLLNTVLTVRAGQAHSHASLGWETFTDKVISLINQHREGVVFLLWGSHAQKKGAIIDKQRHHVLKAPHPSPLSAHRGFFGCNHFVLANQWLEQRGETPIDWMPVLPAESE

Row | IC50 values in cell extracts (A3A) | Compound | block of UDG [1] | inhibition of A3 DNA deaminase activity in vitro [2] | percentage of cells expressing GFP (primary human monocytes)
1 | – | O=C(O)C1=CC(=C(c2ccc(O)c(C(=O)O)c2)c2ccc(O)c(C(=O)O)c2)C=CC1=O [ATA] | lone exception | – | –
2 | higher | Cc1ccc(-c2cc(C(=O)Nc3nnc(-c4ccncc4)s3)c3ccccc3n2)o1 [MN132, 2-(5-methylfuran-2-yl)-N-(5-(pyridin-4-yl)-1,3,4-thiadiazol-2-yl)quinoline-4-carboxamide] | – | inhibit A3 DNA deaminase activity in vitro | dose dependent increases
